Data set [1] concerns α-SMA mRNA in NRK-49F cells. The data set is described as follows: Inhibition of α-SMA mRNA in TGF-β-activated NRK-49F fibroblasts. Type of data set: cell-based, rat. The protocol:
(§1) CTGF, collagen 1 and α-SMA are fibrotic markers produced by activated fibroblasts and by epithelial cells that undergo to epithelial-mesenchymal transition (EMT).
(§2) Table 2: Percentage of inhibition of collagen in epithelial cells (HK2 cells) and fibroblasts (NHDF) and percentage of inhibition of α-SMA in fibroblasts (NRK-49F and NHDF) has been determined for several compounds according the invention. In all cases, the mRNA of collagen and α-SMA has been measured, and the inhibition was evaluated in presence of a respective concentration of the tested compound. The compounds have been tested at different concentrations [mM]. All compounds reduce the expression of collagen and α-SMA in HK-2, NHDF and NRK-49F cells.

Data set [2] relates to collagen 1 mRNA in NHDF cells. The data set is described as follows: Inhibition of collagen mRNA in TGF-β-activated NHDF fibroblasts. Type of data set: cell-based. To be noted: Homo sapiens, compound 0.5 mM. The method, then: as §1, §2
Data set [3] relates to collagen 1 mRNA in HK-2 cells (epithelial cells). The experiment in a line: Inhibition of collagen mRNA in TGF-β-treated HK-2 epithelial cells. Type of data set: cell-based. To be noted: for inhibition at 500 µM: HK-2, compound 0.5 mM; for Collagen HK-2 cells % inhibition: compound 0.25 mM. The protocol: as §1, §2
Data set [4] concerns TGF-β, CTGF, IL-23p19, IL-6, collagen 1, fibronectin (FN-1), collagen 3 mRNA in lung tissue. The experiment in a line: Real-time PCR of inflammatory and fibrotic marker mRNA in lung tissue, bleomycin-induced pulmonary fibrosis mouse model. Type of data set: in vivo, mouse (male C57BL6). The conditions noted are these: oral, Compound I 200 mg/kg, pirfenidone 400 mg/kg, alone or combined. The method, then: (§3) Male C57BL6 mice are administered intratracheal instillation of bleomycin sulphate (0.025 U) at day 0, randomized and administered Compound I (oral administration, 100 mg/kg and 200 mg/kg) on day 7 to day 20.
Further analysis of the lung tissue was undertaken. CTGF, collagen 1 and IL-23p19 mRNA expression was quantified by real-time PCR.
(§4) It was therefore evaluated side-by-side with Compound I in the bleomycin-induced pulmonary fibrosis mouse model by the same protocol described in Example 4 above. Compound I (200 mg/kg) and pirfenidone (400 mg/kg) were orally administered either alone or in combination.
In order to determine the effect of Compound I on pulmonary fibrosis, further analysis of the lung tissue was undertaken. TGF-β, CTGF, IL-23 and IL-6 mRNA expression was quantified by real-time PCR. […] Oral administration of pirfenidone had no effect on CTGF mRNA expression but decreased TGF-β, IL-23 and IL-6 mRNA expression. […]

Data set [5] in a line: Toxicity related to drug in the bleomycin-induced pulmonary fibrosis mouse model. Type of data set: in vivo. To be noted: oral, Compound I 200 mg/kg, pirfenidone 400 mg/kg, alone or in combination, solubilized in PBS. The method, then: as §4
Compound I and pirfenidone were solubilized in PBS. In the combination therapy, pirfenidone was solubilized in a solution of Compound I. No toxicity was reported with Compound I treatment.

Data set [6] relates to bleomycin-induced pulmonary fibrosis mouse model. The experiment in a line: Bleomycin-induced pulmonary fibrosis mouse model: body weight and lung histology. It counts as in vivo, mouse (male C57BL6). To be noted: oral, Compound I 200 mg/kg, pirfenidone 400 mg/kg. The protocol:
Intratracheal instillation of the anticancer drug bleomycin into the mouse results in acute inflammation followed by a chronic fibrotic response. Therefore, evaluation of candidate antifibrotic drugs such as Compound I can be undertaken by treatment of the mice at appropriate time points and histologic, biochemical and cellular readouts may be used to monitor candidate drug efficacy in this model.
as §3
Lesions score was evaluated using HEP (Hemalun with Eosin/Ploxine) and Masson's trichrome staining. Lesions score was recorded as 1) Consolidation as shown by disrupted lung architecture (cellular and/or fibrosis) and 2) Alveolar wall as shown by thickness and shrinking outside of consolidated area.
as §4
Lesions score was evaluated using HEP (Hemalun with Eosin/Ploxine) and Masson's trichrome staining and recorded as 1) Consolidation as shown by disrupted lung architecture (cellular and/or fibrosis), and 2) Alveolar wall as shown by thickness and shrinking outside of consolidated area.
The lesions score as determined by the percentage of leukocyte infiltration (inflammatory zone) multiplied by the percentage of collagen found in the leukocyte infiltrate was quantified by histomorphometry using Masson's trichrome staining.
Visual grading of pulmonary fibrosis was also determined according to Ashcroft's score. Briefly, the entire fields of each lung section were read by a blinded examiner, and each field was visually graded from 0 to 8. Criteria for grading lung fibrosis were as follows: Grade 0=normal lung; Grade 1=minimal fibrous thickening of alveolar or bronchiolar walls; Grade 3=moderate thickening of walls without obvious damage to lung architecture; Grade 5=increased fibrosis with definitive damage to lung structure and formation of fibrous bands or small fibrous masses; Grade 7=severe distortion of structure and large fibrous area; Grade 8=total fibrous obliteration of lung fields.

Where [7] appears, read: Rattus norvegicus, NRK-49F, compound 0.5 mM.
The mark [8] stands for this setting: Rattus norvegicus, NRK-49F, compound 0.25 mM.

Structures can show the parent of a compound that is named as a salt.

Consider `CCCCCc1cc(O)cc(CC(=O)O)c1` [Compound II, Sodium Salt of 3-hydroxy-5-pentylphenylacetic acid], for which the inhibition at 500 µM in data set [1] (setting [7]) is 66%; in data set [2], 40%; in data set [3] (Homo sapiens), 43%.

For `CCCCCc1cc(F)cc(CC(=O)O)c1` [Compound III, Sodium Salt of 3-fluoro-5-pentylphenylacetic acid], the inhibition at 250 µM in data set [1] (setting [8]) was 100%. The same compound showed an inhibition at 500 µM in data set [3] (Homo sapiens) of 100%.

In data set [1] (setting [7]), `CCC/C=C/c1cccc(CC(=O)O)c1` [Compound IV, Sodium Salt of E-(3-pent-1-enyl-phenyl)acetic acid] displayed an inhibition at 500 µM of 64%.

As for `CCCCCc1cccc(C(F)C(=O)[O-])c1.[Na+]` (stereo not shown) [Compound IX, Sodium Salt of 2-Fluoro-2-(3-pentylphenyl)acetic acid], the “α-SMA NRK-49F cells % inhibition” value in data set [1] (compound 0.5 mM) was 82%.

With `CCCCCc1cc(CCC(=O)O)ccc1F` [Compound VI, Sodium Salt of 3-(4-fluoro-3-pentylphenyl)propionic acid], 125 µM produced 90% inhibition in data set [1] (Rattus norvegicus, NRK-49F, compound 0.125 mM).

As to `CCCCCc1cccc(CCC(=O)[O-])c1.[Na+]` [Compound VII, Sodium Salt of 3-(3-pentylphenyl)propionic acid], in data set [1] (compound 0.25 mM), the “α-SMA NRK-49F cells % inhibition” value was determined as 100%.

With `CCCCCc1cccc(C(C)C(=O)[O-])c1.[Na+]` (stereo not shown) [Compound VIII, Sodium Salt of 2-(3-pentylphenyl)propionic acid], the “α-SMA NRK-49F cells % inhibition” value in data set [1] (compound 0.25 mM) was determined as 86%.

As for `CCCCCc1cccc(C(C)(C)C(=O)[O-])c1.[Na+]` [Compound X, Sodium Salt of 2-methyl-2-(3-pentylphenyl)propionic acid], the “α-SMA NRK-49F cells % inhibition” value in data set [1] (compound 0.1 mM) stood at 46%.

The compound `CCCCCCc1cccc(CC(=O)O)c1` [Compound XI, Sodium Salt of 2-(3-Hexylphenyl)acetic acid] showed an inhibition at 100 µM in data set [1] (Rattus norvegicus, NRK-49F, compound 0.1 mM) of 80%.

With `CCCCC=Cc1cccc(CC(=O)[O-])c1.[Na+]` [Compound XII, Sodium Salt of 2-(3-(Hex-1-enyl)phenyl)acetic acid], the “α-SMA NRK-49F cells % inhibition” value in data set [1] (compound 0.1 mM) is listed as 49%.

With `CCCC=Cc1ccc(F)c(CC(=O)[O-])c1.[Na+]` [Compound XIII, Sodium Salt of 2-(2-Fluoro-5-(pent-1-enyl)phenyl)acetic acid], the “α-SMA NRK-49F cells % inhibition” value in data set [1] (compound 0.5 mM) is 84%.

Regarding `CCCCCc1cc(CC(=O)O)ccc1O` [Compound XIV, Sodium Salt of 2-(4-Hydroxy-3-pentylphenyl)acetic acid], the inhibition at 500 µM in data set [1] (setting [7]) amounted to 92%; in data set [2], 26%; in data set [3] (Homo sapiens) it was 72%.

Take `CCCCCc1cccc(CC(=O)[O-])c1O.[Na+]` [Compound XIX, Sodium Salt of 2-(2-Hydroxy-3-pentylphenyl)acetic acid]: the “α-SMA NRK-49F cells % inhibition” value in data set [1] (compound 0.25 mM) is recorded as 100%. The “Collagen HK-2 cells % inhibition” value in data set [3] was determined as 100%.

In the case of `CCCCCc1cc(CC(=O)O)ccc1F` [Compound XV, Sodium Salt of 2-(4-Fluoro-3-pentylphenyl)acetic acid], the inhibition at 500 µM in data set [1] (setting [7]) and in data set [3] (Homo sapiens) was 100% in each case.

In the case of `CCCCCc1cccc(CC(=O)O)c1F` [Compound XVI, Sodium Salt of 2-(2-Fluoro-3-pentylphenyl)acetic acid], in data set [1] (setting [8]), at 250 µM the inhibition was 100%. In data set [3] (Homo sapiens), this compound yielded an inhibition at 500 µM of 100%.

Turning to `CCCCCc1cc(CCC(=O)[O-])ccc1O.[Na+]` [Compound XVII, Sodium Salt of 3-(4-Hydroxy-3-pentylphenyl)propanoic acid], in data set [1] (compound 0.5 mM), the “α-SMA NRK-49F cells % inhibition” value came out at 66%. Moreover, the “Collagen HK-2 cells % inhibition” value in data set [3] was found to be 0%.

Regarding `CCCCCc1cccc(C(=O)C(=O)[O-])c1.[Na+]` [Compound XVIII, Sodium Salt of 2-Oxo-2-(3-pentylphenyl)acetic acid], the “α-SMA NRK-49F cells % inhibition” value in data set [1] (compound 0.25 mM) is 100%.

As for `CCCCCc1cc(O)c(Cc2ccccc2)c(CC(=O)O)c1` [Compound XX, Sodium Salt of 2-(2-Benzyl-3-hydroxy-5-pentylphenyl)acetic acid], in data set [1] (Rattus norvegicus, NRK-49F, compound 0.0625 mM), testing at 62.5 µM gave an inhibition of 95%. Moreover, in data set [3] (Homo sapiens, HK-2, compound 0.125 mM), testing at 125 µM gave an inhibition of 73%.

`Cc1ccc(=O)n(-c2ccccc2)c1` [Pirfenidone, pirfenidone, reference compound]: the “TGF-β mRNA expression in lungs” value in data set [4] (FIG. 12) is on record as “decreased”. For the same compound, the “CTGF mRNA expression in lungs” value in data set [4] (FIG. 13) is given as “no effect”. The “IL-23 mRNA expression in lungs” value in data set [4] (FIG. 14) is recorded as “decreased”. In addition, in data set [4] (FIG. 15), the “IL-6 mRNA expression in lungs” value is listed as “decreased”. In addition, the “collagen 3 mRNA expression in lungs” value in data set [4] (FIG. 18) was “no effect”. For the same compound, the “collagen 1 mRNA expression in lungs” value in data set [4] (reduction to the control level, FIG. 16) is “significant reduction”. Also, in data set [4] (reduction to the control level, FIG. 17), the “fibronectin (FN-1) mRNA expression in lungs” value is reported as “significant reduction”. In addition, the results for the “Toxicity related to drug” value in data set [5] and in data set [5] (listed as pirfenidone) were “Vertigo ++++” and “severe vertigo”, respectively. Further, in data set [6] (alone or combined, FIG. 8), the “histological lesion score of lungs (HEP and Masson's trichrome)” value was “no reduction of fibrosis at the histological level”. In data set [6] (alone or combined, FIG. 11), the “visual grading of pulmonary fibrosis (Ashcroft's score)” value was “weak activity”. Further, the “lesions and fibrosis in lungs (photomicrographs stained with HEP)” value in data set [6] (FIG. 10) is recorded as “no effect”.

The values above are taken from US10450258B2, “Substituted aromatic compounds for the treatment of pulmonary fibrosis, liver fibrosis, skin fibrosis and cardiac fibrosis” (PROMETIC PHARMA SMT LIMITED, priority 2013, dated 2019).
